Measured values reported in US20260103465A1, “GLYCOGEN SYNTHASE KINASE 3 INHIBITORS AND USES THEREOF” (The Broad Institute, Inc., priority 2023, published 2026).
Like-named read-outs stand apart in the source and are kept apart here.

Assays:
[1] = target: T1, GSK3b (GST-full length GSK3b) (Homo sapiens, UniProt P49841); test: GSK3b TR-FRET kinase inhibition assay; format: biochemical
T1 construct: GST-full length GSK3b: [SignalChem G08-9G]; purchased SignalChem G08-9G
Protocol: (§1) TR-FRET assay was performed in a white, 384 well, low volume, flat bottom plate (Grenier). After a 30 minute preincubation in assay buffer with the indicated concentration of compound, the kinase activity was initiated by the addition of the substrates. 1 nM GSK3a (GST-full length GSK3a [SignalChem G08-10G]) or 1 nM GSK3b (GST-full length GSK3b: [SignalChem G08-9G]) were then incubated at ambient temperature for 100 minutes in 10 μl of 50 mM Tris, pH 7.5, 20 mM MgCl2, 0.05 mM DTT, 100 μg/ml BSA and 1% DMSO, with 200 nM biotinylated peptide substrate (biotinylated and S645 phosphorylated glycogen synthase 631-650) and ATP (e.g., at 2 μM, 4 μM, 10 μM, 100 μM, or 1 mM). The kinase activity was quenched with 2 μl of 250 mM EDTA. A 10 μl volume of 40 nM Strepavidin-d2, 2 nM […] antibody in TR-FRET Detection Buffer (Invitrogen) was then added. After 60 min at room temperature the plate was read on Envision plate reader using Ex: 340 nm, Em: 615 nm and […]. The normalized 665/615 Signal ratio versus log compound concentration was analyzed by XLFIT to yield IC50 values.

[2] = target: T2, GSK3a (GST-full length GSK3a) (Homo sapiens, UniProt P49840); test: GSK3a TR-FRET kinase inhibition assay; format: biochemical
T2 construct: GST-full length GSK3a [SignalChem G08-10G]; purchased SignalChem G08-10G
T2 sequence (P49840 whole entry): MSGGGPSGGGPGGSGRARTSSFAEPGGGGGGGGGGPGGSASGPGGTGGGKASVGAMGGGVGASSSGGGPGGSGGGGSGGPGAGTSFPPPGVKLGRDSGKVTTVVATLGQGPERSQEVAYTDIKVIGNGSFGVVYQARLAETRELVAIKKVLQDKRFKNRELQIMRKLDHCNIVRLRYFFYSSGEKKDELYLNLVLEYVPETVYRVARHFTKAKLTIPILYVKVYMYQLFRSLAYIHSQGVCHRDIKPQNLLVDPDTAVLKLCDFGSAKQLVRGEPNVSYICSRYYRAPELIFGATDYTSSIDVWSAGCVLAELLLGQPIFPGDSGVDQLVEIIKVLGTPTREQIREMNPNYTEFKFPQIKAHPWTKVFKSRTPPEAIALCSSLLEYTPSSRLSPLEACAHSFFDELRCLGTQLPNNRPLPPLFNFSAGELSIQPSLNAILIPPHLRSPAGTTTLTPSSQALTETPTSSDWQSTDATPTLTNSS
Protocol: as §1

[3] = 1 mM ATP, Table 5, read-out: GSK3β TR-FRET 1 mM ATP Average IC50
[4] = 1 mM ATP, Table 5, read-out: GSK3α TR-FRET 1 mM ATP Average IC50
[5] = 2 μM ATP, read-out: GSK3β TR-FRET 2 μM ATP GMean IC50
[6] = 4 μM ATP, read-out: GSK3α TR-FRET 4 μM ATP GMean IC50
[7] = 100 μM ATP, read-out: GSK3b 100 μM ATP Average IC50
[8] = 1 mM ATP, Table 3, read-out: GSK3b TR-FRET 1 mM ATP Average IC50
[9] = 100 μM ATP, read-out: GSK3a 100 μM ATP Average IC50
[10] = 1 mM ATP, Table 3, read-out: GSK3a TR-FRET 1 mM ATP Average IC50

T1 sequence (P49841 whole entry): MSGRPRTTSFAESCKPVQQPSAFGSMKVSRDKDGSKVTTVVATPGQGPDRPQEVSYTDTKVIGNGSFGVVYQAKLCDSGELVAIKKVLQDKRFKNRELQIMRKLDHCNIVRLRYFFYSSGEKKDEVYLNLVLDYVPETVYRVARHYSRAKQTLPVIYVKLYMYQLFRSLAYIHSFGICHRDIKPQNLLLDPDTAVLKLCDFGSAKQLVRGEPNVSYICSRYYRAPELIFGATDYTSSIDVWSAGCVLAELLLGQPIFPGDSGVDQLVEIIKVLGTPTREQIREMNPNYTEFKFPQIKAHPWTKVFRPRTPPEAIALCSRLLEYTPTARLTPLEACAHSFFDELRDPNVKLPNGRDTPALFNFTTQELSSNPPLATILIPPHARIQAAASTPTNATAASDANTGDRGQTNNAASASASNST

CC1(C)CC(=O)C2=C(Nc3ncc(C(F)F)c(C#N)c3[C@]2(C)c2ccccc2)[C@H]1F (single isomer, unassigned) [Compound 633A]
IC50 [1, 3]: 1 to 5 µM | IC50 [2, 4]: 5 to 20 µM

CC1(C)CC(=O)C2=C(C1)Nc1ncc(C(F)(F)F)cc1C2(C)c1cccc(C(F)F)c1 (single isomer, unassigned) [646B]
IC50 [1, 3]: 0.1 to 1 µM | IC50 [2, 4]: 1 to 5 µM

CCC1(c2ccccc2)C2=C(CC(C)(C)NC2=O)Nc2ncccc21 (single isomer, unassigned) [Compound 1002B]
IC50 [1, 5]: 1 to 5 µM | IC50 [2, 6]: 1 to 5 µM

CC(C)Oc1cccc(C2(C)C3=C(CC(C)(C)CC3=O)Nc3ncc(C(F)(F)F)cc32)c1 (single isomer, unassigned) [648A]
IC50 [1, 3]: 1 to 5 µM | IC50 [2, 4]: 5 to 20 µM

C=Cc1ccnc2c1C(C)(c1ccccc1)C1=C(CC(C)(C)CC1=O)N2 (single isomer, unassigned) [Compound 111A]
IC50 [1, 7]: ≤ 0.1 µM | IC50 [1, 8]: 0.1 to 1 µM | IC50 [2, 9]: ≤ 0.1 µM | IC50 [2, 10]: 0.1 to 1 µM

CC1(C)CC(=O)C2=C(C1)Nc1ncc(F)cc1C2(C)c1cccc(-c2c(F)cncc2CC2CC2)c1 (single isomer, unassigned) [Compound 169A]
IC50 [1, 8]: 0.1 to 1 µM | IC50 [2, 10]: 0.1 to 1 µM

CCC1(c2cccc(-c3ccnn3C)c2)C2=C(CC(C)(C)CC2=O)Nc2ncc(F)cc21 (single isomer, unassigned) [Compound 1025B]
IC50 [1, 5]: > 5 µM | IC50 [2, 6]: 0.1 to 1 µM

Cc1ccc(C2(C)C3=C(CC(C)(C)CC3=O)Nc3ncc(F)cc32)cc1S(C)(=O)=O (single isomer, unassigned) [644A]
IC50 [1, 3]: 0.1 to 1 µM | IC50 [2, 4]: 0.1 to 1 µM

CC1(C)CC(=O)C2=C(C1)Nc1ncc(F)c(C(F)(F)F)c1C2(C)c1ccccc1 (single isomer, unassigned) [Compound 135B]
IC50 [1, 8]: 1 to 5 µM | IC50 [2, 10]: 5 to 20 µM

CC1(C)CC(=O)C2=C(C1)Nc1ncc(C(F)(F)F)c(C#N)c1C2(C)c1ccccc1 (single isomer, unassigned) [Compound 137A]
IC50 [1, 8]: 0.1 to 1 µM | IC50 [2, 10]: 1 to 5 µM

Cc1nn(C)c(C)c1-c1cccc(C2(C)C3=C(CC(C)(C)CC3=O)Nc3ncc(C(F)(F)F)cc32)c1 (single isomer, unassigned) [Compound 170A]
IC50 [1, 8]: 1 to 5 µM | IC50 [2, 10]: 1 to 5 µM

CC(C)Oc1cccc(C2(C)C3=C(CC(C)(C)CC3=O)Nc3ncc(C(F)F)c(C#N)c32)c1 (single isomer, unassigned) [650A]
IC50 [1, 3]: 1 to 5 µM | IC50 [2, 4]: 5 to 20 µM

CC1(C)CC2=C(C(=O)N1)C(C)(c1cccc(S(C)(=O)=O)c1)c1cc(C(F)(F)F)cnc1N2 (single isomer, unassigned) [651B]
IC50 [1, 3]: 0.1 to 1 µM | IC50 [2, 4]: 0.1 to 1 µM

CC1(C)CC(=O)C2=C(C1)Nc1ncc(F)c(C(F)(F)F)c1C2(C)c1cccc(S(C)(=O)=O)c1 (single isomer, unassigned) [Compound 166A]
IC50 [1, 8]: 0.1 to 1 µM | IC50 [2, 10]: 0.1 to 1 µM

CC1(C)CC2=C(C(=O)[C@@H]1F)[C@@](C)(c1ccccc1)c1c(ncc(F)c1C#N)N2 (single isomer, unassigned) [Compound 616A]
IC50 [1, 3]: 0.1 to 1 µM | IC50 [2, 4]: 0.1 to 1 µM

Cc1cnc2c(c1C#N)C(C)(c1ccccc1)C1=C(CC(C)(C)CC1=O)N2 (single isomer, unassigned) [603A]
IC50 [1, 3]: 5 to 20 µM | IC50 [2, 4]: 5 to 20 µM

CC1(C)CC2=C(C(=O)N1)C(C)(c1cccc(S(C)(=O)=O)c1)c1cccnc1N2 (single isomer, unassigned) [630A]
IC50 [1, 3]: 0.1 to 1 µM | IC50 [2, 4]: ≤ 0.1 µM

CC(C)n1cncc1-c1cccc(C2(C)C3=C(CC(C)(C)CC3=O)Nc3ncc(C(F)(F)F)cc32)c1 (single isomer, unassigned) [Compound 171B]
IC50 [1, 8]: 0.1 to 1 µM | IC50 [2, 10]: 1 to 5 µM

CCC1(c2ccccc2)C2=C(Nc3ncccc31)C(F)C(C)(C)CC2=O (single isomer, unassigned) [Compound 1006B]
IC50 [1, 5]: > 5 µM | IC50 [2, 6]: > 5 µM

CC1(C)CC2=C(C(=O)N1)C(C)(c1ccccc1)c1cc(C(F)(F)F)cnc1N2 (single isomer, unassigned) [625A]
IC50 [1, 3]: 1 to 5 µM | IC50 [2, 4]: 1 to 5 µM

CCC1(c2ccccc2)C2=C(CC(C)(C)CC2=O)Nc2ncc(C(F)(F)F)cc21 (single isomer, unassigned) [133 B]
IC50 [1, 5]: ≤ 0.1 µM | IC50 [2, 6]: ≤ 0.1 µM

CC(=O)c1cnc2c(c1C#N)C(C)(c1ccccc1)C1=C(CC(C)(C)CC1=O)N2 (single isomer, unassigned) [621A]
IC50 [1, 3]: 5 to 20 µM | IC50 [2, 4]: 5 to 20 µM

CC1(C)CC2=C(C(=O)N1)C(C)(c1cccc(S(C)(=O)=O)c1)c1cc(F)cnc1N2 (single isomer, unassigned) [638B]
IC50 [1, 3]: 5 to 20 µM | IC50 [2, 4]: 5 to 20 µM

CCC1(c2cccc(-c3cncn3C(C)C)c2)C2=C(CC(C)(C)CC2=O)Nc2ncccc21 (single isomer, unassigned) [Compound 149B]
IC50 [1, 5]: 0.1 to 1 µM | IC50 [2, 6]: 0.1 to 1 µM

CC1(C)CC(=O)C2=C(C1)Nc1ncc(C3CC3)c(C#N)c1C2(C)c1ccccc1 (single isomer, unassigned) [619B]
IC50 [1, 3]: 5 to 20 µM | IC50 [2, 4]: 5 to 20 µM

CCC1(c2ccccc2)C2=C(CC(C)(C)CC2=O)Nc2ncc(C(F)(F)F)cc21 (single isomer, unassigned) [133 A]
IC50 [1, 5]: > 5 µM | IC50 [2, 6]: > 5 µM

CCC1(c2cccc(-c3cnn(C)c3)c2)C2=C(CC(C)(C)CC2=O)Nc2ncccc21 (single isomer, unassigned) [Compound 1018B]
IC50 [1, 5]: ≤ 0.1 µM | IC50 [2, 6]: ≤ 0.1 µM

CC1(C)CC(=O)C2=C(C1)Nc1ncc(F)c(C#N)c1C2(C)c1cccc(F)c1 (single isomer, unassigned) [618A]
IC50 [1, 3]: 5 to 20 µM | IC50 [2, 4]: 5 to 20 µM

CC(C)Oc1cccc(C2(C)C3=C(CC(C)(C)CC3=O)Nc3ncc(F)cc32)c1 (single isomer, unassigned) [629B]
IC50 [1, 3]: 0.1 to 1 µM | IC50 [2, 4]: 0.1 to 1 µM

CC1(C)CC2=C(C(=O)N1)C(C)(c1cccc(S(C)(=O)=O)c1)c1cc(C3CC3)cnc1N2 (single isomer, unassigned) [647A]
IC50 [1, 3]: 0.1 to 1 µM | IC50 [2, 4]: 0.1 to 1 µM

CCC1(c2ccccc2)C2=C(CC(C)(C)NC2=O)Nc2ncccc21 (single isomer, unassigned) [Compound 1002A]
IC50 [1, 5]: > 5 µM | IC50 [2, 6]: > 5 µM

CCC1(c2cccc(-c3ccnc4c3CCCC4)c2)C2=C(CC(C)(C)CC2=O)Nc2ncc(F)cc21 (single isomer, unassigned) [Compound 165A]
IC50 [1, 5]: > 5 µM | IC50 ([1]; 10 μM ATP, read-out: GSK3b 10 μM ATP Average IC50): ≤ 0.1 µM | IC50 [1, 7]: ≤ 0.1 µM | IC50 [1, 8]: 0.1 to 1 µM | IC50 [2, 6]: 1 to 5 µM | IC50 ([2]; 10 μM ATP, read-out: GSK3a 10 μM ATP Average IC50): ≤ 0.1 µM | IC50 [2, 9]: ≤ 0.1 µM | IC50 [2, 10]: 0.1 to 1 µM

COc1cncc(F)c1-c1cccc(C2(C)C3=C(CC(C)(C)CC3=O)Nc3ncc(C(F)(F)F)cc32)c1 (single isomer, unassigned) [Compound 174B]
IC50 [1, 8]: 0.1 to 1 µM | IC50 [2, 10]: 1 to 5 µM

CC1(C)CC(=O)C2=C(C1)Nc1ncc(Br)c(F)c1C2(C)c1ccccc1 (single isomer, unassigned) [Compound 140B]
IC50 [1, 8]: 5 to 20 µM | IC50 [2, 10]: 5 to 20 µM

CC1(C)CC(=O)C2=C(C1)Nc1ncc(C(F)(F)F)c(C3CC3)c1C2(C)c1ccccc1 (single isomer, unassigned) [642A]
IC50 [1, 3]: 1 to 5 µM | IC50 [2, 4]: 5 to 20 µM

CC1(C)CC(=O)C2=C(C1)Nc1ncc(Br)c(Cl)c1C2(C)c1ccccc1 (single isomer, unassigned) [Compound 145B]
IC50 [1, 8]: 5 to 20 µM | IC50 [2, 10]: 5 to 20 µM

CCC1(c2cccc(C(F)(F)F)c2)C2=C(CC(C)(C)CC2=O)Nc2ncccc21 (single isomer, unassigned) [Compound 1014A]
IC50 [1, 5]: > 5 µM | IC50 [2, 6]: 1 to 5 µM
